Source: US12247010B2, “Tubulin inhibitors” (LIN BIOSCIENCE PTY LTD., priority 2017, dated 2025)

Tested on: U87MG cells
Assay: Cytotoxicity assay (cell viability, CellTiter 96 Aqueous MTS)
Format: cell-based
Settings: Homo sapiens, U-87 MG, 72 h, 72 hours incubation, starting concentration 50 uM, 9 point half log dilution, average where tested repeatedly
Summary of the method: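 U87MG cells plated at 7×10^3 cells/well overnight, then treated 72 h with 9-point half-log dilutions from a 50 uM starting concentration. Viability measured with CellTiter 96 Aqueous MTS; IC50 calculated from viability.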

For `O=C(CCCc1ccc(-c2cnc3c(c2)CCC(=O)N3)cc1)Nc1cccnc1` [Compound 211, 4-(4-(7-oxo-5,6,7,8-tetrahydro-1,8-naphthyridin-3-yl)phenyl)-N-(pyridin-3-yl)butanamide], the IC50 was 1000 to 5000 nM.

`O=C(CCCc1ccc(-c2ccc3[nH]ccc3c2)cc1)Nc1cccnc1` [Compound 213, 4-(4-(1H-indol-5-yl)phenyl)-N-(pyridin-3-yl)butanamide] gave an IC50 of under 500 nM.

In the case of `Cc1nn(C)c(C)c1-c1ccc(CCCC(=O)Nc2cccnc2)cc1` [Compound 216, N-(pyridin-3-yl)-4-(4-(1,3,5-trimethyl-1H-pyrazol-4-yl)phenyl)butanamide], the IC50 is reported as over 5000 nM.

Work on `O=C(CCCc1ccc(-c2cscn2)cc1)Nc1cccnc1` [Compound 217, N-(pyridin-3-yl)-4-(4-(thiazol-4-yl)phenyl)butanamide] yielded an IC50 of over 5000 nM.

Molecule `CCOc1cccc(-c2ccc(CCCC(=O)Nc3cccnc3)cc2)c1F` [Compound 218, 4-(3′-ethoxy-2′-fluoro-[1,1′-biphenyl]-4-yl)-N-(pyridin-3-yl)butanamide] has an IC50 of under 500 nM.

With `Cc1cccc(-c2ccc(CCCC(=O)Nc3cccnc3)cc2)c1F` [Compound 219, 4-(2′-fluoro-3′-methyl-[1,1′-biphenyl]-4-yl)-N-(pyridin-3-yl)butanamide] the IC50 was under 500 nM.

`O=C(CCCc1ccc(-c2cccc(C(F)(F)F)c2F)cc1)Nc1cccnc1` [Compound 220, 4-(2′-fluoro-3′-(trifluoromethyl)-[1,1′-biphenyl]-4-yl)-N-(pyridin-3-yl)butanamide] was tested, and the IC50 was under 500 nM.

`N#Cc1cccc(-c2ccc(CCCC(=O)Nc3cccnc3)cc2)c1F` [Compound 221, 4-(3′-cyano-2′-fluoro-[1,1′-biphenyl]-4-yl)-N-(pyridin-3-yl)butanamide] was tested, and the IC50 was 1000 to 5000 nM.

`O=C(CCCc1ccc(-c2ccc3c(c2)CC(=O)N3)cc1)Nc1cccnc1` [Compound 222, 4-(4-(2-oxoindolin-5-yl)phenyl)-N-(pyridin-3-yl)butanamide] was tested, and the IC50 was under 500 nM.

Molecule `O=C(CCCc1ccc(-c2ccc3[nH]cnc(=O)c3c2)cc1)Nc1cccnc1` [Compound 223, 4-(4-(4-oxo-1,4-dihydroquinazolin-6-yl)phenyl)-N-(pyridin-3-yl)butanamide] has an IC50 of over 5000 nM.

Work on `O=C(CCCc1ccc(-c2ccc3c(c2)OCC(=O)N3)cc1)Nc1cccnc1` [Compound 224, 4-(4-(3-oxo-3,4-dihydro-2H-benzo[b][1,4]oxazin-7-triazoloyl)phenyl)-N-(pyridin-3-yl)butanamide] yielded an IC50 of under 500 nM.

With `O=C(CCCc1ccc(-c2cccc(Cl)c2F)cc1)Nc1cccnc1` [Compound 225, 4-(3′-chloro-2′-fluoro-[1,1′-biphenyl]-4-yl)-N-(pyridin-3-yl)butanamide] the IC50 was over 5000 nM.

`Cc1cc(C(=O)NCCCc2ccc(-c3ccc4c(cnn4C)c3)cc2)no1` [Compound 227, 5-methyl-N-(3-(4-(1-methyl-1H-indazol-5-yl)phenyl)propyl)isoxazole-3-carboxamide] was tested, and the IC50 was under 500 nM.

`Cc1cc(C(=O)NCCCc2ccc(-c3ccc4[nH]ncc4c3C)cc2)n(C)n1` [Compound 228, 1,3-dimethyl-N-(3-(4-(4-methyl-1H-indazol-5-yl)phenyl)propyl)-1H-pyrazole-5-carboxamide] showed an IC50 of under 500 nM.

Molecule `Cc1ccc(C(=O)NCCCc2ccc(-c3cnc4[nH]ccc4c3)cc2)cn1` [Compound 229, N-(3-(4-(1H-pyrrolo[2,3-b]pyridin-5-yl)phenyl)propyl)-6-methylnicotinamide] has an IC50 of under 500 nM.

`Cn1ncc2cc(-c3ccc(CCCNC(=O)c4cncnc4)cc3)ccc21` [Compound 231, N-(3-(4-(1-methyl-1H-indazol-5-yl)phenyl)propyl)pyrimidine-5-carboxamide] was tested, and the IC50 was under 500 nM.

`COc1cccc(-c2ccc(CCCNC(=O)c3ccc(C)nc3)cc2)c1F` [Compound 234, N-(3-(2′-fluoro-3′-methoxy-[1,1′-biphenyl]-4-yl)propyl)-6-methylnicotinamide] was tested, and the IC50 was under 500 nM.

`Cc1cc(C(=O)NCCCc2ccc(-c3cnc4[nH]ccc4c3)cc2)no1` [Compound 235, N-(3-(4-(1H-pyrrolo[2,3-b]pyridin-5-yl)phenyl)propyl)-5-methylisoxazole-3-carboxamide] gave an IC50 of under 500 nM.

`Cc1cc(C(=O)NCCCc2ccc(-c3ccc4c(cnn4C)c3)cc2)n(C)n1` [Compound 236, 1,3-dimethyl-N-(3-(4-(1-methyl-1H-indazol-5-yl)phenyl)propyl)-1H-pyrazole-5-carboxamide] gave an IC50 of under 500 nM.

For `Cc1ccc(C(=O)NCCCc2ccc(-c3ccc4ncccc4c3)cc2)cn1` [Compound 237, 6-methyl-N-(3-(4-(quinolin-6-yl)phenyl)propyl)nicotinamide], the IC50 was under 500 nM.

For `COc1cccc(-c2ccc(CCCNC(=O)c3cc(C)nn3C)cc2)c1F` [Compound 238, N-(3-(2′-fluoro-3′-methoxy-[1,1′-biphenyl]-4-yl)propyl)-1,3-dimethyl-1H-pyrazole-5-carboxamide], the IC50 was 501 to 1000 nM.

`COc1cccc(-c2ccc(CCCNC(=O)c3cc(C)on3)cc2)c1F` [Compound 240, N-(3-(2′-fluoro-3′-methoxy-[1,1′-biphenyl]-4-yl)propyl)-5-methylisoxazole-3-carboxamide] was tested, and the IC50 was 501 to 1000 nM.

Molecule `Cc1ncccc1C(=O)NCCCc1ccc(-c2ccc3c(cnn3C)c2)cc1` [Compound 241, 2-methyl-N-(3-(4-(1-methyl-1H-indazol-5-yl)phenyl)propyl)nicotinamide] has an IC50 of under 500 nM.

For `Cc1cc(C(=O)NCCCc2ccc(-c3ccc4ncccc4c3)cc2)n(C)n1` [Compound 242, 1,3-dimethyl-N-(3-(4-(quinolin-6-yl)phenyl)propyl)-1H-pyrazole-5-carboxamide], the IC50 was under 500 nM.

`COc1ccc(CC(=O)NCCCc2ccc(-c3ccc4c(cnn4C)c3)cc2)cc1` [Compound 244, 2-(4-methoxyphenyl)-N-(3-(4-(1-methyl-1H-indazol-5-yl)phenyl)propyl)acetamide] was tested, and the IC50 was under 500 nM.

`COc1ccc(CC(=O)NCCCc2ccc(-c3cccc(OC)c3F)cc2)cc1` [Compound 245, N-(3-(2′-fluoro-3′-methoxy-[1,1′-biphenyl]-4-yl)propyl)-2-(4-methoxyphenyl)acetamide] gave an IC50 of 501 to 1000 nM.

Work on `COc1ccc(CC(=O)NCCCc2ccc(-c3ccc4ncccc4c3)cc2)cc1` [Compound 246, 2-(4-methoxyphenyl)-N-(3-(4-(quinolin-6-yl)phenyl)propyl)acetamide] yielded an IC50 of under 500 nM.

`COc1ccc(CC(=O)NCCCc2ccc(-c3ccc4[nH]ncc4c3C)cc2)cc1` [Compound 247, 2-(4-methoxyphenyl)-N-(3-(4-(4-methyl-1H-indazol-5-yl)phenyl)propyl)acetamide] gave an IC50 of under 500 nM.

With `COc1cccc(-c2ccc(CCCNC(=O)c3cncnc3)cc2)c1F` [Compound 248] the IC50 was 501 to 1000 nM.

For `O=S(=O)(NCCCc1ccc(-c2ccccc2F)cc1)c1cccnc1` [Compound 262, N-(3-(2′-fluoro-[1,1′-biphenyl]-4-yl)propyl) pyridine-3-sulfonamide], the IC50 was 1000 to 5000 nM.

For `Cn1cnc(S(=O)(=O)NCCCc2ccc(-c3ccccc3F)cc2)c1` [Compound 263, N-(3-(2′-fluoro-[1,1′-biphenyl]-4-yl)propyl)-1-methyl-1H-imidazole-4-sulfonamide], the IC50 was 1000 to 5000 nM.

`O=C(Nc1ccc2[nH]ccc2c1)OCCc1ccc(-c2ccccc2F)cc1` [Compound 272, 2-(2′-fluoro-[1,1′-biphenyl]-4-yl)ethyl (1H-indol-5-yl)carbamate] was tested, and the IC50 was over 5000 nM.
